Assay results: patent US20220370385A1, “COMPOSITIONS FOR USE IN INHIBITING SRC KINASE AND TREATING AND PREVENTING ASSOCIATED DISORDERS” (Enzene Biosciences Ltd., priority 2019, published 2022)

System: MDA-MB-468 cells
Assay: MDA-MB-468 cell viability, CellTiter-Glo, 24 hrs
Type: cell-based, human
Details: Homo sapiens, 24 hrs incubation
Procedure: MDA-MB-468 cells, isolated from a pleural effusion of a patient with metastatic adenocarcinoma of the breast, is a triple negative breast cancer (TNBC) cell line. The IC 50 value of E05 or lapatinib (Sigma) or the structural analogues of E05 were tested in this cell line.
Briefly, MDA-MB-468 cells (ATCC #HTB-32) were seeded with a density of 5,000 cells per well in a 96 well white plate (Costar Cat #3917) in DMEM media supplemented with 10% FBS (assay medium). The plates were incubated at 37° C., 5% CO2 for 24 hr. E05 and analogues were diluted in the assay medium and added to the respective wells of the assay plate. The plates were further incubated at 37° C., 5% CO2 for 24 hrs. After the incubation, the cell viability was assessed using CellTiter-Glo® and the plates were read for luminescence using Cytation 5 (Biotek). The relative luminescence unit (RLU) obtained was plotted against the concentration and EC50 values were estimated using Graphpad Prism 5 software (FIG. 15 and Table 2).

- EC50: 122 µM
SMILES: O=C(O)/C=C/c1ccc(O)c(O)c1 [E05_A]
